From patent US20050074834A1 (priority 2001, published 2005)
“Also recorded” adds a separate entry of the source. No end group written: not given here.

How the values were obtained:
[1] = system: Betta splendens erythrophores; type: cell-based
chromatophores [2] = assay: cells; conditions: read-out: Threshold concentration PPM
chromatophores [3] = system: chromatophores
melanophores = type: cell-based

## CNc1ccc2oc(C[C@H]3O[C@@]4(CC[C@H]3C)O[C@H]([C@H](C)C(=O)c3ccc[nH]3)[C@H](C)C[C@H]4C)nc2c1C(=O)O [A23187]
[1]
  Morphology Effect: Aggregation: No
  Morphology Effect: Dispersion: No

## CC(=O)OCC[N+](C)(C)C [Acetylcholine]
Chromatophores [2]
  minimal effective concentration: 1 to 100 µg/mL

## Nc1ncnc2c1ncn2[C@@H]1O[C@H](CO)[C@@H](O)[C@H]1O [Adenosine]
Chromatophores [3]
  Chromatophore response (cell spans the chromatophore type columns): Disp.
Chromatophores [2]
  minimal effective concentration: 100 to 1000 µg/mL

## [Ag] [Ag]
Chromatophores [3]
  Chromatophore response (cell spans the chromatophore type columns): Imp. (FS)
  Threshold concentration PPT: X (key: X=1 PPT or higher)

## N [Ammonium]
Chromatophores [3]
  Chromatophore response (cell spans the chromatophore type columns): Imp. (FS)
  Threshold concentration PPM: XX (key: X=1 to 100 PPM; XX=100 to 1000 PPM)

## CC(N)Cc1ccccc1 (centres unmarked) [Amphetamine]
Chromatophores [3]
  Chromatophore response (cell spans the chromatophore type columns): Aggr. (FS)
Chromatophores [2]
  minimal effective concentration: 1 to 100 µg/mL

## CC(=O)OCOC(=O)CN(CC(=O)OCOC(C)=O)c1ccccc1OCCOc1ccccc1N(CC(=O)OCOC(C)=O)CC(=O)OCOC(C)=O [BAPTA/AM]
[1]
  Morphology Effect: Aggregation: No
  Morphology Effect: Dispersion: Yes
  erythrophore pigment response on addition: pigment dispersion

## COC(=O)C1=C(C)NC(C)=C([N+](=O)[O-])C1c1ccccc1C(F)(F)F (centres unmarked) [Bay K8644]
[1]
  erythrophore pigment response on direct application: neither the aggregation nor dispersion of erythrophore pigment

## C=C(C=O)C[C@@H]1C[C@H](O)[C@]2(C)O[C@@H]3C[C@@H]4O[C@@H]5C[C@]6(C)O[C@]7(C)CC[C@@H]8O[C@@H]9C[C@]%10(C)O[C@@H]%11C(C)=CC(=O)O[C@H]%11C[C@H]%10O[C@H]9C[C@@H](C)[C@H]8O[C@H]7C[C@H]6O[C@H]5C/C=C\[C@H]4O[C@H]3C[C@H]2O1 [Brevetoxin]
Chromatophores [3]
  Chromatophore response (cell spans the chromatophore type columns): Aggr. (FS)
  Response time Hr.: X (key: X=1-6 hr; XX=6-24 hr)
  Threshold concentration PPM: X (key: X=1 to 100 PPM; XX=100 to 1000 PPM)

## CCCCCCC(C)(C)c1ccc([C@@H]2C[C@H](O)CC[C@H]2CCCO)c(O)c1 [Cannabinoid CP-55940, CP-55940]
Chromatophores [3]
  Chromatophore response (cell spans the chromatophore type columns): Disp. (FS)

## COc1cc2c(c(OC)c1OC)-c1ccc(OC)c(=O)cc1[C@@H](NC(C)=O)CC2 [Colchicine]
Chromatophores [2]
  minimal effective concentration: 100 to 1000 µg/mL

## [Cu] [Cu]
Chromatophores [3]
  Chromatophore response (cell spans the chromatophore type columns): Imp. (FS)
  Threshold concentration PPT: X (key: X=1 PPT or higher)

## C=CC[C@@H](CC/C(C)=C/C=C/CC/C=C\[C@@H]1CSC([C@@H]2C[C@@H]2C)=N1)OC [Curacin A]
Chromatophores [3]
  Chromatophore response (cell spans the chromatophore type columns): Aggr. and Imp. (FS)
  Response time Hr.: X (key: X=1-6 hr; XX=6-24 hr)
  Threshold concentration PPM: X (key: X=1 to 100 PPM; XX=100 to 1000 PPM)

## C=C1[C@@H](C)[C@H]2[C@H](Cc3ccccc3)NC(=O)[C@]23[C@H](OC(C)=O)/C=C/[C@@](C)(O)C(=O)[C@@H](C)C/C=C/[C@H]3[C@@H]1O [Cytochalasin D]
melanophores
  Chromatophore response Melanophores: Imp.
Chromatophores [3]
  Threshold concentration PPM: XX (key: X=1 to 100 PPM; XX=100 to 1000 PPM)

## CNCCCN1c2ccccc2CCc2ccccc21 [Desipramine]
Chromatophores [3]
  Chromatophore response (cell spans the chromatophore type columns): Aggr. (FS)
Chromatophores [2]
  minimal effective concentration: 1 to 100 µg/mL

## NCCc1ccc(O)c(O)c1 [Dopamine]
Chromatophores [3]
  Chromatophore response (cell spans the chromatophore type columns): Aggr. (FS)
Chromatophores [2]
  minimal effective concentration: 100 to 1000 µg/mL

## CCOP(=S)(Oc1ccc([N+](=O)[O-])cc1)c1ccccc1 (centres unmarked) [EPN]
Chromatophores [3]
  Response time Hr.: X (key: X=1-6 hr; XX=6-24 hr)
  Threshold concentration PPM: XX (key: X=1 to 100 PPM; XX=100 to 1000 PPM)

## c1ccc2c(c1)-c1cccc3cccc-2c13 [Fluoranthene]
Chromatophores [2]
  minimal effective concentration: 1 to 100 µg/mL

## C=O [Formaldehyde]
Chromatophores [2]
  minimal effective concentration: 100 to 1000 µg/mL

## NCCc1c[nH]cn1 [Histamine]
Chromatophores [2]
  minimal effective concentration: 100 to 1000 µg/mL

## OO [Hydrogen peroxide]
Chromatophores [3]
  Chromatophore response (cell spans the chromatophore type columns): Imp. (FS)
Chromatophores [2]
  minimal effective concentration: 100 to 1000 µg/mL

## C[C@H](CCC(=O)O)C[C@H](C)C[C@H](C)C(=O)/C=C(\O)[C@H](C)C[C@H](C)C/C=C/[C@@H](C)[C@@H](O)[C@@H](C)[C@@H](O)C[C@@H]1CC[C@@](C)([C@H]2CC[C@@](C)([C@@H](C)O)O2)O1 [Ionomycin]
[1]
  Morphology Effect: Aggregation: Yes
  Morphology Effect: Dispersion: No
  erythrophore pigment response on addition: slight, but sustained aggregation

## [Ni] [Ni]
Chromatophores [3]
  Chromatophore response (cell spans the chromatophore type columns): Imp. (FS)
  Threshold concentration PPT: X (key: X=1 PPT or higher)

## [Pb] [Pb]
Chromatophores [3]
  Chromatophore response (cell spans the chromatophore type columns): Imp. (FS)
  Threshold concentration PPT: X (key: X=1 PPT or higher)

## CN(C)CCC(c1ccccc1)c1ccccn1 (centres unmarked) [Pheniramine]
Chromatophores [2]
  minimal effective concentration: 100 to 1000 µg/mL

## CC(COc1ccccc1)N(CCCl)Cc1ccccc1 (centres unmarked) [Phenoxy-benzamine]
Chromatophores [3]
  Chromatophore response (cell spans the chromatophore type columns): Blocks norepinephrine

## Cc1ccc(N(CC2=NCCN2)c2cccc(O)c2)cc1 [Phentolamine]
Chromatophores [3]
  Chromatophore response (cell spans the chromatophore type columns): Blocks norepinephrine

## CNCCNS(=O)(=O)c1cccc2cnccc12 [Protein kinase inhibitor H-8]
melanophores
  Chromatophore response Melanophores: Disp.
Chromatophores [3]
  Threshold concentration PPM: XX (key: X=1 to 100 PPM; XX=100 to 1000 PPM)

## NCCNS(=O)(=O)c1cccc2cnccc12 [Protein kinase inhibitor H-9]
melanophores
  Chromatophore response Melanophores: Disp.
Chromatophores [3]
  Threshold concentration PPM: XX (key: X=1 to 100 PPM; XX=100 to 1000 PPM)

## COC(=O)[C@@]1(O)C[C@H]2O[C@]1(C)n1c3ccccc3c3c4c(c5c6ccccc6n2c5c31)C(=O)NC4 [Protein kinase inhibitor K252a]
Chromatophores [2]
  minimal effective concentration: 1 to 100 µg/mL

## c1cc2ccc3cccc4ccc(c1)c2c34 [Pyrene]
Chromatophores [2]
  minimal effective concentration: 1 to 100 µg/mL

## O=C(O)c1ccccc1O [Salicylate]
Chromatophores [3]
  Chromatophore response (cell spans the chromatophore type columns): Imp. (FS)
  Threshold concentration PPM: XX (key: X=1 to 100 PPM; XX=100 to 1000 PPM)

## NCCc1c[nH]c2ccc(O)cc12 [Serotonin]
Chromatophores [3]
  Chromatophore response (cell spans the chromatophore type columns): Partial Aggr.
Chromatophores [2]
  minimal effective concentration: 1 to 100 µg/mL

## C/C=C(/C)C(=O)O[C@H]1C(C)=C2[C@H]([C@@H]1OC(=O)CCCCCCC)[C@@](C)(OC(C)=O)C[C@H](OC(=O)CCC)[C@@]1(O)[C@H]2OC(=O)[C@@]1(C)O [Thapsigargin]
[1]
  Morphology Effect: Aggregation: Yes
  Morphology Effect: Dispersion: No

## CCOC(=O)c1cccc(N)c1 [Tricaine]
melanophores
  Chromatophore response Melanophores: Disp.
Chromatophores [3]
  Threshold concentration PPM: X (key: X=1 to 100 PPM; XX=100 to 1000 PPM)

## COc1ccc(CCN(C)CCCC(C#N)(c2ccc(OC)c(OC)c2)C(C)C)cc1OC (centres unmarked) [Verapamil]
[1]
  Morphology Effect: Aggregation: No
  Morphology Effect: Dispersion: Yes
  erythrophore pigment dispersion response, control: failed to induce pigment dispersion response
  erythrophore pigment response after norepinephrine pre-treatment: produces pigment dispersion
  erythrophore response to verapamil: rapid dispersion; also recorded: disperse almost as completely as possible; also recorded: pigment dispersion; also recorded: larger dispersion
Chromatophores [3]
  Threshold concentration PPB: X (key: X=1 to 100 PPB; XX=100 to 1000 PPB)

## COC(=O)[C@@H]1[C@H]2C[C@H]3c4[nH]c5ccccc5c4CCN3C[C@@H]2CC[C@@H]1O [Yohimbine]
Chromatophores [3]
  Chromatophore response (cell spans the chromatophore type columns): Blocks norepinephrine

## MCH
melanophores
  Chromatophore response Melanophores: Aggr.
Chromatophores [3]
  Threshold concentration PPB: X (key: X=1 to 100 PPB; XX=100 to 1000 PPB)

## Substance P (RPKPQQFFGLM; ends and bridges not checked; UniProt P20366 58-68, looked up)
Chromatophores [3]
  Chromatophore response (cell spans the chromatophore type columns): Hue changes (FS)

## μ-Conotoxin GVIA
[1]
  Morphology Effect: Aggregation: No
  Morphology Effect: Dispersion: No
